According to patent US4593090A, “Novel nitrosourea compounds, method for preparing same, and pharmaceutical composition containing same” (Gogo Kimura, priority 1981, dated 1986):
Where two headings read alike, the source gives them in different places.

What was measured:
Leukemia L1210 [1] = assay: Activity against Leukemia L1210, intraperitoneal, increase in life span of mice; assay type: in vivo, female mice (BDF1 family); conditions: for ED (maximum ILS) / ED30: Mus musculus, L1210, ip, ip once a day for 5 successive days; for ED (maximum ILS): daily dosage giving maximum increase of life span, read-out: O.D. (optimum dosage); for ED30: daily dosage increasing average survival days by 30%, read-out: ILS30; for Survivors after 60 days / Max. ILS % / Therapeutic ratio TR: ip; for Survivors after 60 days: 6-membered group; for Max. ILS %: 60-day observation, versus control; for Therapeutic ratio TR: O.D./ILS30
Method in brief: (§1)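 Female BDF1 mice (20 to 23 g, 6 per group) implanted ip with 1×10^5 L1210 cells; test compound given ip or orally once daily for 5 days starting 24 h later. ILS% from mean survival days vs untreated controls over 60 days; T.R. = O.D./ILS30.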

Leukemia L1210 [2] = assay: Activity against Leukemia L1210, oral, increase in life span of mice; assay type: in vivo, female mice (BDF1 family); conditions: for ED (maximum ILS) / ED30: Mus musculus, L1210, oral once a day for 5 successive days; for ED (maximum ILS): daily dosage giving maximum increase of life span, read-out: O.D. (optimum dosage); for ED30: daily dosage increasing average survival days by 30%, read-out: ILS30; for Survivors after 60 days / Max. ILS % / Therapeutic ratio TR: oral; for Survivors after 60 days: 6-membered group; for Max. ILS %: 60-day observation, versus control; for Therapeutic ratio TR: O.D./ILS30
Method in brief: as §1

Ehrlich acites carcinoma = assay: Growth-inhibiting effect against Ehrlich acites carcinoma; assay type: in vivo, male mice; conditions: Mus musculus, Ehrlich, 120 h, 5 days; for response vs control in vivo at 25 mg/kg: 25 mg/kg/day ip; for response vs control in vivo at 100 mg/kg: 100 mg/kg/day ip
Method in brief: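 Male mice (groups of 6) implanted intraperitoneally with 1×10^7 Ehrlich ascites cells; compounds in 1% Nikkol HCO-60 given i.p. once daily for 5 days starting 24 hrs post-implantation. Total packed cell volume measured at day 7; T/C% vs untreated group, scored - (100-66), + (65-41), ++ (40-11), +++ (10-0).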

[3] = Acute toxicity (LD50, Behrens-Karber method); assay type: in vivo, ICR mice; conditions: mouse, in vivo, ip, mortality during 30 days
Experimental: Test compounds, dissolved or suspended in 0.5% aqueous CMC, were each intraperitoneally administered to ICR mice in a dose of 0.1 ml per 10 g body weight. LD50 (mg/kg) value of each test compound was calculated from the mortality of mice during 30 days by the Behrens-Karber method.

[4] = Diuretic activity, acute sodium loaded mouse screening test; assay type: in vivo, male mice; conditions: 50 mg/kg oral in 1% saline; for Cl^- / K^+ / Na^+: urine
Experimental: The diuretic activity of the compounds of this invention was assayed by the diuresis screening test referred to as "acute sodium loaded mouse". This test was carried out by the following method.
The acute sodium loaded mouse screening test was carried out by using a 10-membered group of male mice (each weighing 18 to 24 g). Test compounds were incorporated in 1% saline (NaCl) solution and orally administered in a volume of 10 ml/kg. The mice were placed in metabolic cages. Each treated group consisted of 10-members. Five members were placed in one cage. Tests were conducted by oral administrations of (A) 1% saline (NaCl) solution to the control group and (B) 1% saline (NaCl) solution containing a test compound according to this invention.
The determination was carried out for sodium, potassium, and chlorine in each pooled urine sample. The determination of sodium and potassium was carried out by flame photometer. Chlorine was determined by chloride analysis apparatus. The analytical values of sodium, potassium, and chlorine were shown with an average mg equivalent (m Eq)/Kg/5 hours, and the diuretic activity was shown with an average urine volume (ml)/Kg/5 hours.

Row | Structure (SMILES) | ED (maximum ILS) (Leukemia L1210 [1]) [mg/kg] | ED30 (Leukemia L1210 [1]) [mg/kg] | Survivors after 60 days (Leukemia L1210 [1]) | Max. ILS % (Leukemia L1210 [1]) [%] | Therapeutic ratio TR (Leukemia L1210 [1]) | ED (maximum ILS) (Leukemia L1210 [2]) [mg/kg] | ED30 (Leukemia L1210 [2]) [mg/kg] | Survivors after 60 days (Leukemia L1210 [2]) | Max. ILS % (Leukemia L1210 [2]) [%] | Therapeutic ratio TR (Leukemia L1210 [2]) | response vs control in vivo at 25 mg/kg (Ehrlich acites carcinoma; read-out: Activity) [%] | response vs control in vivo at 25 mg/kg (Ehrlich acites carcinoma; read-out: T/C %) [%] | response vs control in vivo at 100 mg/kg (Ehrlich acites carcinoma; read-out: Activity) [%] | response vs control in vivo at 100 mg/kg (Ehrlich acites carcinoma; read-out: T/C %) [%] | LD50 at 720 h [3] [mg/kg] | Urine volume [4] [ml/kg/5 hrs.] | Cl^- [4] [mEq/kg/5 hrs.] | K^+ [4] [mEq/kg/5 hrs.] | Na^+ [4] [mEq/kg/5 hrs.]
1 | CC(C)CO[C@H]1O[C@H](CN(CC2CCCO2)C(=O)N(CCCl)N=O)[C@@H](O)[C@H](O)[C@H]1O (stereo partly drawn) [Compound 23, 3-tetrahydrofurfuryl-3-(isobutyl α-D-glucopyranose-6-yl)-1-(2-chloroethyl)-1-nitrosourea] | 200 | 3 | 5/6 | > 630 | 66.7 | 250 | 8.74 | 5/6 | > 625 | 28.6 | 0 to 10 | 0 | 0 to 10 | 0 | 620 | 10.2 | 0.8 | 1.0 | 0.7
2 | COCCN(C[C@H]1O[C@H](OC2CCCCC2)[C@H](O)[C@@H](O)[C@@H]1O)C(=O)N(CCCl)N=O [Compound 39, 3-(2-methoxyethyl)-3-(cyclohexyl α-D-glucopyranose-6-yl)-1-(2-chloroethyl)-1-nitrosourea] | 170 | 2.47 | 6/6 | > 700 | 68.8 | 220 | 7.43 | 5/6 | > 635 | 29.6 | 0 to 10 | 0 | 0 to 10 | 0 | 510 | 9.2 | 0.7 | 0.8 | 0.6
3 | COC(C)CO[C@H]1O[C@H](CN(CC2CCCO2)C(=O)N(CCCl)N=O)[C@H](O)[C@H](O)[C@H]1O (stereo partly drawn) [Compound 117, 3-tetrahydrofurfuryl-3-(2-methoxy-n-propyl α-D-galactopyranose-6-yl)-1-(2-chloroethyl)-1-nitrosourea] | 200 | 3.3 | 6/6 | > 700 | 60.6 |  |  |  |  |  | 0 to 10 | 0 | 0 to 10 | 0 | 610 | 8.4 | 0.7 | 0.9 | 0.5
4 | CC(C)(C)N(C[C@H]1O[C@H](OCCN2CCOCC2)[C@H](O)[C@@H](O)[C@@H]1O)C(=O)N(CCCl)N=O [Compound 181, 3-tert-butyl-3-(2-morpholinoethyl α-D-glucopyranose-6-yl)-1-(2-chloroethyl)-1-nitrosourea] | 160 | 2.89 | 6/6 | > 700 | 55.4 |  |  |  |  |  | 0 to 10 | 0 | 0 to 10 | 0 | 530 | 13.1 | 1.3 | 1.2 | 1.1
5 | COCCN(C[C@H]1O[C@H](OCC(C)C)[C@@H](O)[C@@H](O)[C@@H]1O)C(=O)N(CCCl)N=O [Compound 135, 3-(2-methoxyethyl)-3-(isobutyl α-D-mannopyranose-6-yl)-1-(2-chloroethyl)-1-nitrosourea] | 200 | 2.92 | 6/6 | > 700 | 68.5 | 240 | 9.92 | 6/6 | > 700 | 24.2 | 0 to 10 | 0 | 0 to 10 | 0 | 620 | 9.7 | 0.8 | 0.9 | 0.7
6 | COCCN(C[C@H]1O[C@H](OC(C)COC)[C@H](O)[C@@H](O)[C@@H]1O)C(=O)N(CCCl)N=O (stereo partly drawn) [Compound 35, 3-(2-methoxyethyl)-3-(1-methyl-2-methoxyethyl α-D-glucopyranose-6-yl)-1-(2-chloroethyl)-1-nitrosourea] | 150 | 2.23 | 6/6 | > 700 | 67.3 |  |  |  |  |  | 0 to 10 | 0 | 0 to 10 | 0 | 470 | 8.8 | 0.6 | 0.9 | 0.5
7 | COCCN(C(=O)N(CCCl)N=O)C1C(CO)OC(OCC(C)C)C(O)C1O [Compound 93, 3-(2-methoxyethyl)-3-(isobutyl α-D-glucopyranose-4-yl)-1-(2-chloroethyl)-1-nitrosourea] | 160 | 4.49 | 3/6 | > 370 | 35.6 |  |  |  |  |  | 0 to 10 | 0 | 0 to 10 | 0 | 530 | 9.6 | 0.7 | 0.9 | 0.6
